This series has as its system Yap1 mRNA. Briefly: Antisense inhibition of human Yap1 in A-431 cells by cEt gapmers, single dose (Example 3, RTS36584). In kind it is cell-based. A digest of the protocol: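 Single-dose free-uptake screen of 3-10-3 cEt gapmers in A-431 cells at 2,000 nM over about 48 h. Values are % untreated control Yap1 mRNA.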
Where [1] appears, read: Table 8, A-431 cells, 5,000 cells per well, free uptake, 2,000 nM, approximately 48 hours, RTS36584, normalized to RIBOGREEN, Yap1 mRNA relative to untreated control cells.
Where [2] appears, read: Table 34, Yap1 mRNA as percent of untreated control, 3-10-3 cEt gapmers targeting SEQ ID NO: 1 and 2, single dose.
The mark [3] stands for this setting: Table 13, A-431 cells, 5,000 cells per well, free uptake, 2,000 nM modified oligonucleotide, approx. 48 hours, RTS36584, normalized to RIBOGREEN, Yap1 mRNA relative to untreated control cells.
Setting [4] is: Table 9, A-431 cells, 5,000 cells per well, free uptake, 2,000 nM, approximately 48 hours, RTS36584, normalized to RIBOGREEN, Yap1 mRNA relative to untreated control cells.
The mark [5] stands for this setting: Table 27, Yap1 mRNA by 3-10-3 cEt gapmers targeting SEQ ID NO.: 1, and 2, percent of untreated control.
Setting [6] is: Table 28, Yap1 mRNA as percent of untreated control, 3-10-3 cEt gapmers targeting SEQ ID NO.: 1, and 2.
Setting [7] is: Table 10, A-431 cells, 5,000 cells per well, free uptake, 2,000 nM oligonucleotide, approx. 48 hours, primer probe set RTS36584, Yap1 mRNA normalized to RIBOGREEN, percent of untreated control.
Where [8] appears, read: Table 12, A-431 cells, 5,000 cells per well, free uptake, 2,000 nM modified oligonucleotide, approx. 48 hours, RTS36584, normalized to RIBOGREEN, Yap1 mRNA relative to untreated control cells.
Where [9] appears, read: Table 29, Yap1 mRNA as percent of untreated control, 3-10-3 cEt gapmers targeting SEQ ID NO.: 1, and 2.
[10] abbreviates: Table 26, Yap1 mRNA by 3-10-3 cEt gapmers targeting SEQ ID NO.: 1, and 2, percent of untreated control.
The mark [11] stands for this setting: Table 11, A-431 cells, 5,000 cells per well, free uptake, 2,000 nM oligonucleotide, approx. 48 hours, primer probe set RTS36584, Yap1 mRNA normalized to RIBOGREEN, percent of untreated control.

Strand notation (5' to 3'): a small letter for the sugar, then the base; units joined by * are phosphorothioate-linked, units joined directly phosphodiester-linked; [ ] holds rarer units or linkages, { } end groups; capitals alone tell only the bases. k = constrained ethyl (cEt); [5mC] = 5-methylcytosine; d = 2'-deoxy (DNA)

Consider 43 substances from patent US11214803B2, “Modulators of YAP1 expression” (Ionis Pharmaceuticals, Inc., priority 2019, dated 2022).

For “958403 (antisense k[5mC]*kA*kG*dT*dT*dT*dA*dT*dG*dT*dA*dG*dT*kA*kG*kT) [Compound 958403]”, the “YAP1 (% UTC)” value under setting [1] is reported as 5 % UTC.

For the substance “1074932 (antisense kG*kG*kA*dG*dA*d[5mC]*dT*dA*dT*dA*d[5mC]*dA*dA*k[5mC]*kA*kG) [compound 1074932]”, under setting [2], the “YAP1 (% UTC)” value is 88 % UTC.

For the substance “958625 (antisense kT*kG*k[5mC]*dT*dG*dG*dG*dA*dT*dT*dG*dA*dT*kA*kT*kT) [Compound 958625]”, the “YAP1 (% UTC)” value under setting [3] stood at 6 % UTC.

With “958491 (kA*k[5mC]*kT*dA*dA*dA*dT*dG*d[5mC]*dT*dG*dT*dG*kA*k[5mC]*kA; antisense) [Compound 958491]”, under setting [4], the “YAP1 (% UTC)” value turned out to be 4 % UTC.

Regarding “1074797 (kA*k[5mC]*kT*d[5mC]*d[5mC]*dA*dA*dA*dT*d[5mC]*dA*dA*dT*kG*kT*kG; antisense) [compound 1074797]”, the “YAP1 (% UTC)” value under setting [5] is reported as 31 % UTC.

On to “1076302 (kA*kA*kT*dA*dA*dG*d[5mC]*d[5mC]*dT*d[5mC]*dA*d[5mC]*d[5mC]*kT*kT*kT; antisense) [compound 1076302]”, for which the “YAP1 (% UTC)” value under setting [6] amounted to 74 % UTC.

For the substance “958692 (antisense kG*kG*k[5mC]*dT*dA*dG*dA*dG*dG*d[5mC]*d[5mC]*dG*dG*kG*kT*kG) [Compound 958692]”, the “YAP1 (% UTC)” value under setting [7] is reported as 105 % UTC.

Take “1075444 (antisense kA*kT*kA*dA*dA*dT*d[5mC]*d[5mC]*dT*d[5mC]*dA*dT*dG*kT*kG*kG) [compound 1075444]”: the “YAP1 (% UTC)” value under setting [2] is 112 % UTC.

On to “1074645 (antisense kA*kA*kT*dT*dG*dA*dA*dG*dG*dG*d[5mC]*d[5mC]*dA*kA*kA*kA) [compound 1074645]”, for which the “YAP1 (% UTC)” value (Table 35, Yap1 mRNA as percent of untreated control, 3-10-3 cEt gapmers targeting SEQ ID NO: 1 and 2, single dose) is recorded as 81 % UTC.

On to “958534 (kT*kT*k[5mC]*dA*dG*d[5mC]*dA*dT*dA*dG*dA*dA*dG*kT*kA*kG; antisense) [Compound 958534]”, for which the “YAP1 (% UTC)” value under setting [8] was 3 % UTC.

Consider “1075252 (kT*kT*kA*dA*dT*dT*dA*d[5mC]*dG*dA*dT*dT*dA*kG*kA*kT; antisense) [compound 1075252]”, for which the “YAP1 (% UTC)” value under setting [2] came to 90 % UTC.

On to “958505 (kG*kA*kT*dA*dA*dT*d[5mC]*dG*dA*dG*dA*dT*dT*kT*kA*kA; antisense) [Compound 958505]”, for which the “YAP1 (% UTC)” value under setting [3] is given as 6 % UTC.

For “958474 (antisense kG*kT*kG*dT*d[5mC]*dT*d[5mC]*d[5mC]*dT*dT*dA*dG*dA*kT*k[5mC]*k[5mC]) [Compound 958474]”, the “YAP1 (% UTC)” value under setting [8] is given as 3 % UTC.

As to “958455 (antisense kA*kG*kA*dG*dG*dA*dA*dT*dG*dA*dG*d[5mC]*dT*k[5mC]*kG*kA) [Compound 958455]”, the “YAP1 (% UTC)” value under setting [3] was 43 % UTC.

As to “1074863 (kA*kT*kA*dT*dG*dA*dG*d[5mC]*dA*dT*dG*d[5mC]*dT*k[5mC]*kT*kT; antisense) [compound 1074863]”, the “YAP1 (% UTC)” value under setting [9] was determined as 41 % UTC.

Turning to “1074894 (antisense kT*kG*k[5mC]*dT*dG*dA*dA*dG*dT*dT*dT*dA*dG*k[5mC]*k[5mC]*kT) [compound 1074894]”, the “YAP1 (% UTC)” value under setting [6] is 79 % UTC.

On to “1074958 (antisense kT*kA*kA*d[5mC]*d[5mC]*d[5mC]*dG*dG*dG*dT*dT*dT*dT*kT*kG*kT) [compound 1074958]”, for which the “YAP1 (% UTC)” value under setting [6] came to 107 % UTC.

For “958358 (antisense kG*kG*k[5mC]*dG*dG*d[5mC]*dT*dT*dG*dA*dA*dG*dA*kA*kG*kG) [Compound 958358]”, under setting [1], the “YAP1 (% UTC)” value worked out at 34 % UTC.

For the substance “1074861 (kT*kG*k[5mC]*dT*d[5mC]*dT*dT*dA*d[5mC]*dA*dT*d[5mC]*dT*kA*kA*kA; antisense) [compound 1074861]”, under setting [5], the “YAP1 (% UTC)” value turned out to be 23 % UTC.

As to “1075021 (antisense kT*kT*kA*d[5mC]*dA*dA*d[5mC]*d[5mC]*dT*dA*dG*dA*dT*kT*kT*kG) [compound 1075021]”, the “YAP1 (% UTC)” value under setting [5] is recorded as 68 % UTC.

In the case of “1074772 (kA*kG*kT*dT*dA*dA*dA*dA*dT*d[5mC]*dT*dT*dA*kT*k[5mC]*k[5mC]; antisense) [compound 1074772]”, under setting [2], the “YAP1 (% UTC)” value was 80 % UTC.

Consider “958501 (kT*kG*k[5mC]*d[5mC]*dT*dA*dG*dG*dT*dT*d[5mC]*d[5mC]*dG*kA*k[5mC]*kA; antisense) [Compound 958501]”, for which, under setting [4], the “YAP1 (% UTC)” value turned out to be 41 % UTC.

Take “958516 (k[5mC]*kT*kG*d[5mC]*dA*dG*dA*d[5mC]*dT*dG*d[5mC]*d[5mC]*d[5mC]*k[5mC]*kA*kA; antisense) [Compound 958516]”: the “YAP1 (% UTC)” value under setting [4] was found to be 38 % UTC.

Regarding “1075564 (kA*kT*kA*dT*dA*dA*d[5mC]*dA*dG*dG*d[5mC]*d[5mC]*dA*k[5mC]*k[5mC]*kA; antisense) [compound 1075564]”, the “YAP1 (% UTC)” value under setting [10] is on record as 81 % UTC.

Take “1074988 (antisense kA*k[5mC]*k[5mC]*dG*d[5mC]*dG*dG*d[5mC]*dG*dG*dA*dG*dT*kG*kG*kA) [compound 1074988]”: the “YAP1 (% UTC)” value under setting [10] is 94 % UTC.

In the case of “958535 (kG*kG*kG*dT*d[5mC]*dA*dA*dT*dT*dT*dT*d[5mC]*dA*kG*k[5mC]*kA; antisense) [Compound 958535]”, the “YAP1 (% UTC)” value under setting [3] was 10 % UTC.

Take “958438 (antisense k[5mC]*kG*k[5mC]*d[5mC]*d[5mC]*d[5mC]*dG*dG*d[5mC]*dT*d[5mC]*d[5mC]*dA*k[5mC]*kT*kG) [Compound 958438]”: under setting [11], the “YAP1 (% UTC)” value came to 61 % UTC.

With “958710 (antisense kA*kG*kG*dG*dA*dA*d[5mC]*d[5mC]*d[5mC]*dT*dT*dG*dG*k[5mC]*kT*kA) [Compound 958710]”, the “YAP1 (% UTC)” value under setting [3] worked out at 77 % UTC.

Take “958679 (kG*kT*kA*dA*d[5mC]*dT*dG*d[5mC]*d[5mC]*dA*d[5mC]*dA*dG*kT*kT*kA; antisense) [Compound 958679]”: the “YAP1 (% UTC)” value under setting [8] is reported as 77 % UTC.

As to “1076303 (k[5mC]*kT*kA*dA*dT*dA*dA*dG*d[5mC]*d[5mC]*dT*d[5mC]*dA*k[5mC]*k[5mC]*kT; antisense) [compound 1076303]”, under setting [9], the “YAP1 (% UTC)” value was 34 % UTC.

In the case of “1075405 (antisense k[5mC]*kT*kA*dT*dA*dT*dA*dA*d[5mC]*d[5mC]*dT*dG*dA*kA*k[5mC]*kT) [compound 1075405]”, the “YAP1 (% UTC)” value under setting [5] came to 84 % UTC.

For the substance “958573 (kG*kG*k[5mC]*dA*dA*dA*dT*dT*dA*dT*dA*dG*dG*k[5mC]*kA*k[5mC]; antisense) [Compound 958573]”, the “YAP1 (% UTC)” value under setting [11] is given as 2 % UTC.

For the substance “958657 (k[5mC]*kA*kG*dT*dA*dT*dA*dA*dT*dA*dT*d[5mC]*d[5mC]*kT*kA*kA; antisense) [Compound 958657]”, the “YAP1 (% UTC)” value under setting [7] is 37 % UTC.

As for “958511 (k[5mC]*kA*k[5mC]*dT*dA*d[5mC]*d[5mC]*dA*d[5mC]*dA*d[5mC]*dT*dA*kT*kT*kA; antisense) [Compound 958511]”, under setting [4], the “YAP1 (% UTC)” value is listed as 31 % UTC.

As to “1075213 (kA*k[5mC]*kA*dA*dT*dA*dA*dA*dG*dG*dG*dT*d[5mC]*k[5mC]*kT*kA; antisense) [compound 1075213]”, under setting [5], the “YAP1 (% UTC)” value worked out at 33 % UTC.

On to “958378 (antisense k[5mC]*kA*kT*d[5mC]*dA*dG*dT*dA*d[5mC]*dT*dG*dG*d[5mC]*k[5mC]*kT*kA) [Compound 958378]”, for which the “YAP1 (% UTC)” value under setting [1] is 25 % UTC.

Turning to “1076047 (kA*k[5mC]*kT*dT*dA*dA*dA*dT*dG*dG*dT*dG*d[5mC]*kA*kA*kT; antisense) [compound 1076047]”, the “YAP1 (% UTC)” value under setting [9] was 34 % UTC.

Consider “958601 (k[5mC]*k[5mC]*kT*dT*dT*dA*dA*dA*dG*dG*d[5mC]*dA*d[5mC]*kT*kA*k[5mC]; antisense) [Compound 958601]”, for which the “YAP1 (% UTC)” value under setting [4] was 17 % UTC.

For the substance “1074964 (antisense kT*kT*kA*dG*dG*d[5mC]*dA*dA*dG*d[5mC]*dA*dG*d[5mC]*kT*kA*kA) [compound 1074964]”, the “YAP1 (% UTC)” value under setting [2] is recorded as 112 % UTC.

Consider “1075726 (kA*kG*kT*dT*dA*dT*d[5mC]*d[5mC]*dT*dA*dT*d[5mC]*dT*kG*kT*k[5mC]; antisense) [compound 1075726]”, for which the “YAP1 (% UTC)” value under setting [6] is 14 % UTC.

On to “958723 (antisense kA*kA*k[5mC]*d[5mC]*d[5mC]*dA*d[5mC]*dT*dA*dA*dA*dA*d[5mC]*k[5mC]*kG*kG) [Compound 958723]”, for which the “YAP1 (% UTC)” value under setting [11] is reported as 63 % UTC.

In the case of “1075533 (kG*kA*kT*dT*dA*d[5mC]*dT*d[5mC]*dA*dG*d[5mC]*dT*dA*kT*kG*kT; antisense) [compound 1075533]”, the “YAP1 (% UTC)” value under setting [5] is on record as 65 % UTC.

In the case of “958560 (kG*kG*kT*dG*d[5mC]*d[5mC]*dA*d[5mC]*dT*dT*dT*dA*dA*kT*kT*k[5mC]; antisense) [Compound 958560]”, the “YAP1 (% UTC)” value under setting [3] turned out to be 22 % UTC.
